Assay results published in ChEMBL document CHEMBL3352102, “Synthesis and bioevaluation of 2-phenyl-4-methyl-1,3-selenazole-5-carboxylic acids as potent xanthine oxidase inhibitors” (Eur J Med Chem, 2014).

What was measured:
[1] = molecular target: T1, Xanthine dehydrogenase/oxidase (Bos taurus, UniProt P80457); test: Inhibition of bovine xanthine oxidase assessed as inhibition of uric acid formation after 30 mins by spectrophotometry
[2] = molecular target: T1, Xanthine dehydrogenase/oxidase; test: Mixed-type inhibition of bovine xanthine oxidase assessed as inhibition of uric acid formation by Lineweaver-Burk plot
[3] = molecular target: T1, Xanthine dehydrogenase/oxidase; test: Mixed-type inhibition of reduced form of bovine xanthine oxidase assessed as inhibition of uric acid formation by Lineweaver-Burk plot; conditions: cattle
[4] = molecular target: T1, Xanthine dehydrogenase/oxidase; test: Mixed-type inhibition of oxidized form of bovine xanthine oxidase assessed as inhibition of uric acid formation by Lineweaver-Burk plot; conditions: cattle
[5] = molecular target: T1, Xanthine dehydrogenase/oxidase; test: Mixed-type inhibition of bovine xanthine oxidase assessed as inhibition of uric acid formation by secondary Lineweaver-Burk plot
[6] = molecular target: T1, Xanthine dehydrogenase/oxidase; test: Inhibition of bovine xanthine oxidase assessed as inhibition of uric acid formation at 10000 nM after 30 mins by spectrophotometry; conditions: cattle, 0.5 h

T1 sequence (P80457 whole entry): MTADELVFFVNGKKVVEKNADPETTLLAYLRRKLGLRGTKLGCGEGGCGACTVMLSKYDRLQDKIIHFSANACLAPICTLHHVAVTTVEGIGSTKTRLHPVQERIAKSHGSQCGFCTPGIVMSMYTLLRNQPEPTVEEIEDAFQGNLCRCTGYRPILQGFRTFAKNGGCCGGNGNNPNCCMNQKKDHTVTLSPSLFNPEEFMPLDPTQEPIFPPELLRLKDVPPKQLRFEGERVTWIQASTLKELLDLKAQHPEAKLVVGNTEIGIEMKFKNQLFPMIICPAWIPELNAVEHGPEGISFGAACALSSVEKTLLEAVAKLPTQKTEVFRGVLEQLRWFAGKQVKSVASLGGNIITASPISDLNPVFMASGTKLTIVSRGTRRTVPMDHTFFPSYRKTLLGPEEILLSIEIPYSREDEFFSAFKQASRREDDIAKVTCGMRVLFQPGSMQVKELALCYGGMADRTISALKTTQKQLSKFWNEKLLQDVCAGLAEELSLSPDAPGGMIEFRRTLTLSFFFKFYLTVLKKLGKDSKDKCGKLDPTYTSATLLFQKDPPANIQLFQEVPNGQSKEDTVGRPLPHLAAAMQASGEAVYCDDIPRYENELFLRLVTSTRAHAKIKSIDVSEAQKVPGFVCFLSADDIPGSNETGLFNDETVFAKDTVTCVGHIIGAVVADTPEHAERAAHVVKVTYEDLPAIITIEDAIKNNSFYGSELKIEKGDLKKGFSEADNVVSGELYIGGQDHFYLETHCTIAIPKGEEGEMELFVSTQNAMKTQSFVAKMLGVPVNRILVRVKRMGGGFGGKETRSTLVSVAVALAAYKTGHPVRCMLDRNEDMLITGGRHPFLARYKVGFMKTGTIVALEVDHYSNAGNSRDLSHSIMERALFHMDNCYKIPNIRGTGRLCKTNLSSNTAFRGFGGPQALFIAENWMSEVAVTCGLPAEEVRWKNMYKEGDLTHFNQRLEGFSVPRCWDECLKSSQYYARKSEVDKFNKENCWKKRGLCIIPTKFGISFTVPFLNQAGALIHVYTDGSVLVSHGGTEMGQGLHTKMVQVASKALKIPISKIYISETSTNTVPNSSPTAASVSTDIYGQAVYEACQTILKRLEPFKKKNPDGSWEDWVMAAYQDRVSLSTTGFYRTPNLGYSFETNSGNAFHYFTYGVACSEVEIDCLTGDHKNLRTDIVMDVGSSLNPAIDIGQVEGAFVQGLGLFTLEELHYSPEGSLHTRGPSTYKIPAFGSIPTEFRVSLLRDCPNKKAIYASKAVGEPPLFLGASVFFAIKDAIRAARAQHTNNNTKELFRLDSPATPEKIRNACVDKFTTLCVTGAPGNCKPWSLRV

Cc1nc(-c2ccc(OCCC(C)C)c([N+](=O)[O-])c2)[se]c1C(=O)O
IC50 [1]: 65.6 nM

CCOc1ccc(-c2nc(C)c(C(=O)O)[se]2)cc1[N+](=O)[O-]
IC50 [1]: 82.5 nM

CCCCOc1ccc(-c2nc(C)c(C(=O)O)[se]2)cc1[N+](=O)[O-]
IC50 [1]: 49.2 nM

Cc1nc(-c2ccc(OCC(C)C)c([N+](=O)[O-])c2)[se]c1C(=O)O
IC50 [1]: 33.7 nM

C=CCOc1ccc(-c2nc(C)c(C(=O)O)[se]2)cc1[N+](=O)[O-]
IC50 [1]: 16.1 nM

Cc1nc(-c2ccc(OCc3ccccc3)c([N+](=O)[O-])c2)[se]c1C(=O)O
IC50 [1]: 40.3 nM

CCCCOc1ccc(-c2nc(C)c(C(=O)O)[se]2)cc1C#N
IC50 [1]: 13.2 nM

C=CCOc1ccc(-c2nc(C)c(C(=O)O)[se]2)cc1C#N
Ki [2]: 0.9 nM
inhibition (INH) [3]: Active
inhibition (INH) [4]: Active
Ki [5]: 2.3 nM
IC50 [1]: 5.5 nM

COc1ccc(-c2nc(C)c(C(=O)O)[se]2)cc1C#N
IC50 [1]: 30.6 nM

CCCOc1ccc(-c2nc(C)c(C(=O)O)[se]2)cc1C#N
IC50 [1]: 16.2 nM

CCC(C)Oc1ccc(-c2nc(C)c(C(=O)O)[se]2)cc1C#N (stereo not drawn)
IC50 [1]: 10.4 nM

CCCCCOc1ccc(-c2nc(C)c(C(=O)O)[se]2)cc1C#N
IC50 [1]: 45.6 nM

C#CCOc1ccc(-c2nc(C)c(C(=O)O)[se]2)cc1C#N
IC50 [1]: 53.8 nM

C=CCOc1ccc(-c2nc(C)c(C(=O)OCC)[se]2)cc1C#N
inhibition at 10 µM [6]: < 50%
